Assay results from patent US8637525B2, “Compounds for the reduction of beta-amyloid production” (Bristol-Myers Squibb Company, priority 2009, dated 2014).
Counter-ions that a name gives are not always drawn. Like-named read-outs stand apart in the source and are kept apart here. Each block holds one molecule with its values, some of them ahead of it.

Test system: Aβ1-42 production
Assay: Cellular assay for inhibition of Aβ1-42 production (H4 APP751 SWE clone 8.20)
Assay type: cell-based
Details: H4 APP751 SWE clone 8.20 cells, 19 h incubation
Description: Cellular Assays for Inhibition of Aβ1-40 and Aβ1-42 Production
H4 cells stably transfected with APP751 containing the Swedish mutation (H4 APP751 SWE clone 8.20, developed at BMS) were maintained in log phase through twice weekly passage at a 1:20 split. […] Following incubation for 19 h in 5% CO2 at 37° C., plates were briefly centrifuged (1000 rpm, 5 min). A 10 μl aliquot from each well was transferred to a second assay plate (Costar 3709) for Aβ40 measurements. Antibody cocktails were freshly prepared by dilution into 40 mM Tris-HCl (pH 7.4) with 0.2% BSA and added to assay plates. For Aβ42 measurements, antibodies specific for the Aβ42 neoepitope (565, developed at BMS; conjugated to the Wallac reagent (Perkin Elmer)) and the N-terminal sequence of Aβ peptide (26D6, developed at SIBIA; conjugated to APC (Perkin Elmer)) were mixed and 20 μl of the mixture was added to each well of the incubated cell plate yielding a final concentration of 0.8 ng/well 565 and 75 ng/well 26D6. For the Aβ40 measurements, antibodies specific for the Aβ40 neoepitope (TSD, developed at BMS; conjugated to the Wallac reagent (Perkin Elmer)) and 26D6 as described above were mixed and 20 μl of the mixture was added to the 10 μl aliquots which had been removed previously from the cell plate yielding a final concentration of 1.6 ng/well TSD and 17.5 ng/well 26D6. Assay plates containing antibodies were sealed with aluminum foil and incubated overnight at 4° C. Signal was determined using a Viewlux counter (Perkin Elmer) and IC50 values determined using curve fitting in CurveMaster (Excel Fit based).

[1] = 19 h, read-out: Activity Rating (Aβ42 cellular IC50), numeric value
[2] = class symbols, read-out: Activity Rating (Aβ42 cellular IC50)
[3] = 19 h, class symbols, read-out: Activity Rating (Aβ42 cellular IC50)

Compound: COc1cc(Nc2nc3c(c(N4CCCC4C)n2)CCC3c2ccc(F)cc2)ccc1-n1cnc(Cl)c1 (single isomer, unassigned) [Example 19B, N-(4-(4-chloro-1H-imidazol-1-yl)-3-methoxyphenyl)-7-(4-fluorophenyl)-4-(2-methylpyrrolidin-1-yl)-6,7-dihydro-5H-cyclopenta[d]pyrimidin-2-amine]
- IC50 [1]: 59 nM

Compound: CNc1nc(Nc2ccc(-n3cnc(C)n3)c(OC)c2)nc2c1COCC2c1ccc(F)cc1 (racemic) [Example 54, 8-(4-fluorophenyl)-N2-(3-methoxy-4-(3-methyl-1H-1,2,4-triazol-1-yl)phenyl)-N4-methyl-7,8-dihydro-5H-pyrano[4,3-d]pyrimidine-2,4-diamine]
- IC50 [3]: 10 to 100 nM

Compound: CCN(C)c1nc(Nc2ccc(-n3cnc(Cl)c3)c(OC)c2)nc2c1COCC2c1ccccc1 (racemic) [Example 52, N^2-(4-(4-Chloro-1H-imidazol-1-yl)-3-methoxyphenyl)-N^4-ethyl-N^4-methyl-8-phenyl-7,8-dihydro-5H-pyrano[4,3-d]pyrimidine-2,4-diamine]
- IC50 [3]: 10 to 100 nM

Compound: CCNc1nc(Nc2ccc(-n3cnc(Cl)c3)c(OC)c2)nc2c1COCC2c1ccc(F)cc1 (stereo not shown) [Example 56A, N2-(4-(4-chloro-1H-imidazol-1-yl)-3-methoxyphenyl)-N4-ethyl-8-(4-fluorophenyl)-7,8-dihydro-5H-pyrano[4,3-d]pyrimidine-2,4-diamine]
- IC50 [2]: 1.5 to 9.9 nM

Compound: CNc1nc(Nc2ccc(-n3ncnc3C)c(F)c2)nc2c1COC2c1ccc(F)cc1 (racemic) [Example 82, N2-(3-fluoro-4-(5-methyl-1H-1,2,4-triazol-1-yl)phenyl)-7-(4-fluorophenyl)-N4-methyl-5,7-dihydrofuro[3,4-d]pyrimidine-2,4-diamine, TFA]
- IC50 [3]: 10 to 100 nM

Compound: Cc1ncnn1-c1ccc(Nc2nc3c(c(N4CC(F)(F)C4)n2)CCC3c2ccc(F)cc2)cc1F (racemic) [Example 16, 4-(3,3-difluoroazetidin-1-yl)-N-(3-fluoro-4-(5-methyl-1H-1,2,4-triazol-1-yl)phenyl)-7-(4-fluorophenyl)-6,7-dihydro-5H-cyclopenta[d]pyrimidin-2-amine]
- IC50 [3]: 10 to 100 nM

Compound: COc1cc(Nc2nc3c(c(N(C)C)n2)COCC3c2ccccc2)ccc1-n1cnc(Cl)c1 (single isomer, unassigned) [Example 53A, N^2-(4-(4-Chloro-1H-imidazol-1-yl)-3-methoxyphenyl)-N^4,N^4-dimethyl-8-phenyl-7,8-dihydro-5H-pyrano[4,3-d]pyrimidine-2,4-diamine]
- IC50 [2]: 1.5 to 9.9 nM

Compound: COc1cc(Nc2nc3c(c(N4CCC(F)C4)n2)CCOC3c2ccc(F)cc2)ccc1-n1cnc(Cl)c1 (stereo in doubt) [Example 90B, N-(4-(4-chloro-1H-imidazol-1-yl)-3-methoxyphenyl)-8-(4-fluorophenyl)-4-((R)-3-fluoropyrrolidin-1-yl)-6,8-dihydro-5H-pyrano[3,4-d]pyrimidin-2-amine]
- IC50 [1]: 270 nM

Compound: CNc1nc(Nc2ccc(C#N)c(C(F)(F)F)c2)nc2c1CCC2c1ccccc1 (stereo not shown) [Example 238, 4-(4-(methylamino)-7-phenyl-6,7-dihydro-5H-cyclopenta[d]pyrimidin-2-ylamino)-2-(trifluoromethyl)benzonitrile]
- IC50 [2]: 100 to 1000 nM

Compound: CCNc1nc(Nc2ccc(-n3ncnc3C)c(F)c2)nc2c1COCC2c1ccc(F)cc1 (stereo not shown) [Example 59A, N4-ethyl-N2-(3-fluoro-4-(5-methyl-1H-1,2,4-triazol-1-yl)phenyl)-8-(4-fluorophenyl)-7,8-dihydro-5H-pyrano[4,3-d]pyrimidine-2,4-diamine]
- IC50 [3]: 1.5 to 9.9 nM

Now from value to molecule:

- IC50 [2]: 10 to 100 nM
Compound: CCNc1nc(Nc2ccc(-n3cnc(Cl)c3)c(OC)c2)nc2c1CCN(C(=O)OC)C2c1ccc(F)cc1 (stereo not shown) [Example 170, methyl 2-(4-(4-chloro-1H-imidazol-1-yl)-3-methoxyphenylamino)-4-(ethylamino)-8-(4-fluorophenyl)-5,6-dihydropyrido[3,4-d]pyrimidine-7(8H)-carboxylate]

- IC50 [3]: 1.5 to 9.9 nM
Compound: CNc1nc(Nc2ccc(-n3cnc(Cl)c3)c(OC)c2)nc2c1CCC2c1ccc(F)c(F)c1 (racemic) [Example 96, N^2-(4-(4-Chloro-1H-imidazol-1-yl)-3-methoxyphenyl)-7-(3,4-difluorophenyl)-N^4-methyl-6,7-dihydro-5H-cyclopenta[d]pyrimidine-2,4-diamine]

- IC50 [1]: 180 nM
Compound: CCN(C)c1nc(Nc2ccc(-n3cnc(Cl)c3)c(OC)c2)nc2c1CN(C)CC2c1ccc(F)cc1 (stereo not shown) [Example 165B, N2-(4-(4-chloro-1H-imidazol-1-yl)-3-methoxyphenyl)-N4-ethyl-8-(4-fluorophenyl)-N4,6-dimethyl-5,6,7,8-tetrahydropyrido[4,3-d]pyrimidine-2,4-diamine]

- IC50 [1]: 175 nM
Compound: CCNc1nc(Nc2ccc(-n3ncnc3C)c(F)c2)nc2c1CN(CC(F)F)CC2c1ccccc1 (stereo not shown) [Example 194B, 6-(2,2-difluoroethyl)-N4-ethyl-N2-(3-fluoro-4-(5-methyl-1H-1,2,4-triazol-1-yl)phenyl)-8-phenyl-5,6,7,8-tetrahydropyrido[4,3-d]pyrimidine-2,4-diamine]

- IC50 (read-out: Activity Rating (Aβ42 cellular IC50), numeric value): 10 nM
Compound: CNc1nc(Nc2ccc(-n3cnc(Cl)c3)c(OC)c2)nc2c1/C(=N/OC)CC2c1ccccc1 (stereo not shown) [Example 201A, (E)-2-(4-(4-chloro-1H-imidazol-1-yl)-3-methoxyphenylamino)-4-(methylamino)-7-phenyl-6,7-dihydro-5H-cyclopenta[d]pyrimidin-5-one O-methyl oxime]

- IC50 [2]: 10 to 100 nM
Compound: CCNc1nc(Nc2ccc(-n3cnc(Cl)c3)c(OC)c2)nc2c1CCC2(C)c1ccccc1 (stereo not shown) [Example 110B, N2-(4-(4-chloro-1H-imidazol-1-yl)-3-methoxyphenyl)-N4-ethyl-7-methyl-7-phenyl-6,7-dihydro-5H-cyclopenta[d]pyrimidine-2,4-diamine]

- IC50 [3]: 100 to 1000 nM
Compound: CCNc1nc(Nc2ccc(-n3cnc(C)n3)c(F)c2)nc2c1CN(CC(F)F)CC2c1ccccc1 (stereo not shown) [Example 195B, 6-(2,2-difluoroethyl)-N4-ethyl-N2-(3-fluoro-4-(3-methyl-1H-1,2,4-triazol-1-yl)phenyl)-8-phenyl-5,6,7,8-tetrahydropyrido[4,3-d]pyrimidine-2,4-diamine]

- IC50 [1]: 61 nM
Compound: COc1cc(Nc2nc3c(c(N(C)S(C)(=O)=O)n2)CCC3c2ccccc2)ccc1-n1cnc(Cl)c1 (stereo not shown) [Example 210, N-(2-(4-(4-chloro-1H-imidazol-1-yl)-3-methoxyphenylamino)-7-phenyl-6,7-dihydro-5H-cyclopenta[d]pyrimidin-4-yl)-N-methylmethanesulfonamide]

- IC50 [1]: 9.8 nM
Compound: CCNc1nc(Nc2ccc(-n3cnc(C)n3)c(F)c2)nc2c1CN(S(C)(=O)=O)CC2c1ccc(F)cc1 (stereo not shown) [Example 156A, N4-ethyl-N2-(3-fluoro-4-(3-methyl-1H-1,2,4-triazol-1-yl)pheny)-8-(4-fluorophenyl)-6-(methylsulfonyl)-5,6,7,8-tetrahydropyrido[4,3-d]pyrimidine-2,4-diamine]

- IC50 [2]: 10 to 100 nM
Compound: CNc1nc(Nc2ccc(-n3cnc(Cl)c3)c(OC)c2)nc2c1CCCC2c1ccccc1 (stereo not shown) [Example 203B, N2-(4-(4-chloro-1H-imidazol-1-yl)-3-methoxyphenyl)-N4-methyl-8-phenyl-5,6,7,8-tetrahydroquinazoline-2,4-diamine]

- IC50 [3]: 10 to 100 nM
Compound: CNc1nc(Nc2ccc(-n3cnc(C)c3)c(OC)n2)nc2c1CCC2c1ccc(F)cc1 (stereo not shown) [Example 267, 7-(4-fluorophenyl)-N2-(6-methoxy-5-(4-methyl-1H-imidazol-1-yl)pyridin-2-yl)-N4-methyl-6,7-dihydro-5H-cyclopenta[d]pyrimidine-2,4-diamine]

- IC50 [2]: 10 to 100 nM
Compound: CCN(C)c1nc(Nc2ccc(-n3cnc(Cl)c3)c(OC)c2)nc2c1CCCC2c1ccccc1 (single isomer, unassigned) [Example 124B, N^2-(4-(4-Chloro-1H-imidazol-1-yl)-3-methoxyphenyl)-N^4-ethyl-N^4-methyl-8-phenyl-5,6,7,8-tetrahydroquinazoline-2,4-diamine]

- IC50 [3]: 1.5 to 9.9 nM
Compound: CNc1nc(Nc2ccc(-c3ccnc(C)c3)c(OC)c2)nc2c1CCC2c1ccccc1 (stereo not shown) [Example 261, N2-(3-methoxy-4-(2-methylpyridin-4-yl)phenyl)-N4-methyl-7-phenyl-6,7-dihydro-5H-cyclopenta[d]pyrimidine-2,4-diamine]

- IC50 [3]: 1.5 to 9.9 nM
Compound: COc1cc(Nc2nc3c(c(N(C)C)n2)CCC3c2ccc(F)c(F)c2)ccc1-n1cnc(Cl)c1 (racemic) [Example 95, N^2-(4-(4-Chloro-1H-imidazol-1-yl)-3-methoxyphenyl)-7-(3,4-difluorophenyl)-N^4,N^4-dimethyl-6,7-dihydro-5H-cyclopenta[d]pyrimidine-2,4-diamine]

- IC50 [3]: 10 to 100 nM
Compound: CCNc1nc(Nc2ccc(-n3cnc(C)n3)c(F)c2)nc2c1CN(C(=O)C1CC1)CC2c1ccccc1 (stereo not shown) [Example 143, cyclopropyl(4-(ethylamino)-2-(3-fluoro-4-(3-methyl-1H-1,2,4-triazol-1-yl)phenylamino)-8-phenyl-7,8-dihydropyrido[4,3-d]pyrimidin-6(5H)-yl)methanone]
